Results as given in patent publication US5942502A, “Method of treating diseases resulting from calcium metabolism disorders” (priority 1998, dated 1999).
“Also recorded” adds a separate entry of the source. Where two headings read alike, the source gives them in different places.

How the values were obtained:
[1] = cited from earlier work
[2] = in vivo; cited from earlier work
Ovariectomized rats = assay: Ovariectomized rat model: serum Ca and P, femur dry weight, ash weight and breaking load; type: in vivo, Female Fisher rats; settings: for Serum Pi / Breaking load (femur) / Serum Ca / Ash weight (femur) / Dry weight (femur): three times a week for 23 weeks, Mean ± SD; for Serum Pi: OVX 2.6 ± 0.4; for Breaking load (femur): OVX 9.0 ± 0.9; for Serum Ca: OVX 9.7 ± 0.2; for Ash weight (femur): OVX 285 ± 19; for Dry weight (femur): OVX 431 ± 26
Description: Female Fisher rats, 9-10 months old, were ovariectomized and were fed a vitamin D-deficient diet containing 0.45% calcium and 0.3% phosphorus. The rats were given 15IU of vitamin D3 orally once a week throughout this experiment. Four weeks after the surgery, the rats were orally adminstered three times a week for 23 weeks with ST-630 (30, 100 or 300 pmole/kg) or 1α-hydroxyvitamin D3 (100 or 300 pmole/kg).

[3] = Acute toxicity (LD50), single dose; type: in vivo, rat; settings: rat, in vivo; single (acute) dose, male rats, at 14 days
Description: LD50 data represent the dose administered resulting in the death of 50% of the test group.

female beagle dogs = assay: Chronic dosing toxicity, three months oral; type: in vivo, dog (beagle); settings: 0.3 mg/kg orally each day for three months
Experimental: With respect to chronic dosing, a group of six female beagle dogs were given 0.3 mg/kg of either ST-630 or 1α-hydroxyvitamin D3 orally each day for three months.

[4] = cited from earlier work; remark: listed apart in the source
[5] = compared with 1,25-(OH)2 D3; cited from earlier work
[6] = tested on: postmenopausal osteoporosis; settings: average dose 0.8 μg per day, cited from earlier work
[7] = tested on: postmenopausal osteoporosis; settings: cited from earlier work
[8] = especially with conventional calcium supplement treatment
[9] = dose response over the doses tested

C=C1/C(=C\C=C2/CCC[C@]3(C)[C@@H]([C@H](C)CCC(O)C(C)(C)O)CC[C@@H]23)C[C@@H](O)CC1O (stereo partly drawn) [1,24,25-trihydroxyvitamin D3]
hypercalcemia ([1]; in vivo): causing hypercalcemia

C=C1/C(=C\C=C2/CCC[C@]3(C)[C@@H]([C@H](C)/C=C/[C@@H](C)C(C)(C)O)CC[C@@H]23)C[C@@H](O)C[C@@H]1O [1α,25-dihydroxy-24-epi-vitamin D2]
intestinal calcium transport [2]: increasing intestinal calcium transport | mineralization of new bone [2]: stimulating the mineralization of new bone | mobilizing calcium from bone [2]: minimal effectiveness

C=C1/C(=C\C=C2/CCC[C@]3(C)[C@@H]([C@H](C)/C=C/[C@H](C)C(C)(C)O)CC[C@@H]23)C[C@@H](O)C[C@@H]1O [1α,25-dihydroxyvitamin D2]
hypercalcemia [1, 8]: causing hypercalcemia

C=C1/C(=C\C=C2/CCC[C@]3(C)[C@@H]([C@H](C)/C=C/[C@H](C)C(C)C)CC[C@@H]23)C[C@@H](O)C[C@@H]1O [1α-hydroxyvitamin D2]
hypercalcemia [1, 8]: causing hypercalcemia

C=C1/C(=C\C=C2/CCC[C@]3(C)[C@@H]([C@H](C)CCCC(C)C)CC[C@@H]23)C[C@@H](O)C[C@@H]1O [1α-hydroxyvitamin D3, reference compound]
Serum Pi (Ovariectomized rats; 100 pmole/kg p.o.): 3.8 ± 0.3 mg/100 ml | Breaking load (femur) (Ovariectomized rats; 100 pmole/kg p.o.): 9.3 ± 0.6 kg | Serum Ca (Ovariectomized rats; 100 pmole/kg p.o.): 9.9 ± 0.2 mg/100 ml | Ash weight (femur) (Ovariectomized rats; 100 pmole/kg p.o.): 303 ± 29 mg | Dry weight (femur) (Ovariectomized rats; 100 pmole/kg p.o.): 454 ± 42 mg | Serum Pi (Ovariectomized rats; 300 pmole/kg p.o.): 4.3 ± 0.4 mg/100 ml | Breaking load (femur) (Ovariectomized rats; 300 pmole/kg p.o.): 9.5 ± 1.1 kg | Serum Ca (Ovariectomized rats; 300 pmole/kg p.o.): 10.3 ± 0.3 mg/100 ml | Ash weight (femur) (Ovariectomized rats; 300 pmole/kg p.o.): 308 ± 33 mg | Dry weight (femur) (Ovariectomized rats; 300 pmole/kg p.o.): 461 ± 47 mg | serum calcium level (Ovariectomized rats; [9]): increased dose-dependently | serum phosphorus level (Ovariectomized rats; [9]): increased dose-dependently | LD50 at 336 h [3]: 0.2 mg/kg | deaths (female beagle dogs): two of six dogs | safe dose used for human administration ([4]; humans): 1 µg/day

C=C1/C(=C\C=C2/CCC[C@]3(C)[C@@H]([C@H](C)CCC(F)(F)C(C)(C)O)CC[C@@H]23)C[C@@H](O)C[C@@H]1O [24,24-difluoro-1,25-(OH)2 D3]
activity relative to 1,25-(OH)2 D3 [5]: at least as great if not greater activity

C=C1/C(=C\C=C2/CCC[C@]3(C)[C@@H]([C@H](C)CCCC(C)(C)O)CC[C@@H]23)C[C@@H](O)C[C@@H]1O [calcitriol, 1α,25-dihydroxyvitamin D3]
Hypercalciuria incidence [6]: all subjects | bone formation [6]: no effect on bone formation | bone resorption [6]: reducing bone resorption | calcium absorption [6]: increasing calcium absorption | hypercalcemia incidence [6]: 11 of 12 subjects | bone loss ([6]; women with postmenopausal osteoporosis): reduced bone loss | hypercalcemia ([7]; 0.5 μg per day (0.25 μg orally twice a day), average dietary calcium intake 800 mg): not accompanied by hypercalcemia of any severity; also recorded: limited potential to induce hypercalcemia | rate of new vertebral fractures ([7]; 0.5 μg per day for three years, versus supplemental calcium 1 gram daily): significant reduction | hypercalcemia [1, 8]: causing hypercalcemia | dosage "window" or tolerance between effectiveness and toxicity ([4]; in view of Oloia et al and Tilyard et al): relatively small

C=C1CC[C@H](O)C/C1=C/C=C1\CCC[C@]2(C)[C@@H]([C@H](C)CCCC(C)(C)O)CC[C@@H]12 [hydrate of 25-hydroxyvitamin D3, 25-hydroxyvitamin D3]
hypercalcemia [1, 8]: danger of hypercalcemia
